≈ marks a conversion by molar mass, not a printed value. Calls of active or inactive are those of the source. The rule behind the calls is not given here.
Tests used:
Staphylococcus aureus [1] = assay: Antibacterial activity against methicillin-sensitive Staphylococcus aureus ATCC 25923 at 256 ug/ml after 24 hrs by disc diffusion method; assay type: functional, organism-based
Staphylococcus aureus [2] = assay: Antibacterial activity against methicillin-resistant Staphylococcus aureus ATCC 43300 at 256 ug/ml after 24 hrs by disc diffusion method; assay type: functional, organism-based
Staphylococcus aureus [3] = assay: Antibacterial activity against methicillin-sensitive Staphylococcus aureus ATCC 25923 at 102.4 mg/ml after 24 hrs by disc diffusion method; assay type: functional; settings: ATCC 25923, 24 h, read-out: DIZ
Staphylococcus aureus [4] = assay: Antibacterial activity against methicillin-resistant Staphylococcus aureus ATCC 43300 at 102.4 mg/ml after 24 hrs by disc diffusion method; assay type: functional; settings: ATCC 43300, 24 h, read-out: DIZ
Staphylococcus aureus [5] = assay: Antibacterial activity against methicillin-sensitive Staphylococcus aureus ATCC 25923 after 24 hrs by microdilution method; assay type: functional; settings: ATCC 25923, 24 h
Staphylococcus aureus [6] = assay: Antibacterial activity against methicillin-resistant Staphylococcus aureus ATCC 43300 after 24 hrs by microdilution method; assay type: functional; settings: ATCC 43300, 24 h
Staphylococcus aureus [7] = assay: Antibacterial activity against methicillin-sensitive Staphylococcus aureus ATCC 25923 after 24 hrs by microdilution method in presence of non-beta lactam antibiotic Doxycycline; assay type: functional
Staphylococcus aureus [8] = assay: Antibacterial activity against methicillin-sensitive Staphylococcus aureus ATCC 25923 after 24 hrs by microdilution method in presence of non-beta lactam antibiotic ciprofloxacin; assay type: functional
Staphylococcus aureus [9] = assay: Antibacterial activity against methicillin-sensitive Staphylococcus aureus ATCC 25923 after 24 hrs by microdilution method in presence of non-beta lactam antibiotic gentamycin; assay type: functional
Staphylococcus aureus [10] = assay: Antibacterial activity against methicillin-resistant Staphylococcus aureus ATCC 43300 after 24 hrs by microdilution method in presence of non-beta lactam antibiotic Doxycycline; assay type: functional
Staphylococcus aureus [11] = assay: Antibacterial activity against methicillin-resistant Staphylococcus aureus ATCC 43300 after 24 hrs by microdilution method in presence of non-beta lactam antibiotic ciprofloxacin; assay type: functional
Staphylococcus aureus [12] = assay: Antibacterial activity against methicillin-resistant Staphylococcus aureus ATCC 43300 after 24 hrs by microdilution method in presence of non-beta lactam antibiotic gentamycin; assay type: functional
Staphylococcus aureus [13] = assay: Antibacterial activity against methicillin-sensitive Staphylococcus aureus ATCC 25923 at 30 ug/ml after 24 hrs by disc diffusion method; assay type: functional; settings: ATCC 25923, 24 h, read-out: DIZ
Staphylococcus aureus [14] = assay: Antibacterial activity against methicillin-resistant Staphylococcus aureus ATCC 43300 at 30 ug/ml after 24 hrs by disc diffusion method; assay type: functional; settings: ATCC 43300, 24 h, read-out: DIZ

| SMILES | diameter of the inhibition zone (DIZ) (Staphylococcus aureus [1]) | diameter of the inhibition zone (DIZ) (Staphylococcus aureus [2]) | also measured |
| --- | --- | --- | --- |
| O=C(/C=C/c1ccccc1)c1ccc(Br)cc1 | inactive | inactive |  |
| O=C(/C=C/c1ccccc1O)c1ccccc1O |  |  | zone of inhibition at 102400 µg/mL (Staphylococcus aureus [3]): 14 mm; zone of inhibition at 102400 µg/mL (Staphylococcus aureus [4]): 14 mm; MIC (Staphylococcus aureus [5]): 64 µg/mL (≈ 266 µM); MIC (Staphylococcus aureus [6]): 64 µg/mL (≈ 266 µM); fractional inhibitory concentration index (FICI) (Staphylococcus aureus [7]): 0.25; fractional inhibitory concentration index (FICI) (Staphylococcus aureus [8]): 1.5; fractional inhibitory concentration index (FICI) (Staphylococcus aureus [9]): 0.36; fractional inhibitory concentration index (FICI) (Staphylococcus aureus [10]): 0.15; fractional inhibitory concentration index (FICI) (Staphylococcus aureus [11]): 0.62; fractional inhibitory concentration index (FICI) (Staphylococcus aureus [12]): 0.5 |
| COc1ccc(/C=C/C(=O)c2ccc(Br)cc2)cc1OC | inactive | inactive |  |
| O=C(/C=C/c1ccc(Cl)cc1)c1ccccc1O | inactive | inactive |  |
| COc1ccc(C(=O)/C=C/c2ccc(Cl)cc2)c(O)c1 | inactive | inactive |  |
| O=C(/C=C/c1ccc(Cl)c(Cl)c1)c1ccccc1O | inactive | inactive |  |
| COc1ccc(C(=O)/C=C/c2ccc(OC)c(OC)c2)c(O)c1 | inactive | inactive |  |
| COc1ccc(/C=C/C(=O)c2ccc(OC)cc2O)cc1 | inactive | inactive |  |
| COc1ccc(C(=O)/C=C/c2ccc(OC)cc2OC)c(O)c1 | inactive | inactive |  |
| O=C(/C=C/c1ccccc1O)c1ccccc1 |  |  | zone of inhibition at 102400 µg/mL (Staphylococcus aureus [3]): 11 mm; zone of inhibition at 102400 µg/mL (Staphylococcus aureus [4]): 11 mm; MIC (Staphylococcus aureus [5]): 32 µg/mL (≈ 143 µM); MIC (Staphylococcus aureus [6]): 64 µg/mL (≈ 285 µM); fractional inhibitory concentration index (FICI) (Staphylococcus aureus [7]): 0.31; fractional inhibitory concentration index (FICI) (Staphylococcus aureus [10]): 0.15; fractional inhibitory concentration index (FICI) (Staphylococcus aureus [11]): 0.75 |
| O=C(/C=C/c1ccc(O)cc1)c1ccccc1 [4-HYDROXYCHALCONE] |  |  | zone of inhibition at 102400 µg/mL (Staphylococcus aureus [3]): 10 mm; zone of inhibition at 102400 µg/mL (Staphylococcus aureus [4]): 9 mm; MIC (Staphylococcus aureus [5]): 64 µg/mL (≈ 285 µM); MIC (Staphylococcus aureus [6]): 32 µg/mL (≈ 143 µM); fractional inhibitory concentration index (FICI) (Staphylococcus aureus [8]): 0.31; fractional inhibitory concentration index (FICI) (Staphylococcus aureus [10]): 0.62; fractional inhibitory concentration index (FICI) (Staphylococcus aureus [11]): 0.25 |
| COc1ccc(/C=C/C(=O)c2ccccc2)cc1OC | inactive | inactive |  |
| COc1ccc(C(=O)/C=C/c2ccc(Cl)c(Cl)c2)c(O)c1 | inactive | inactive |  |
| COc1cccc(/C=C/C(=O)c2ccc(Br)cc2)c1OC | inactive | inactive |  |
| CN[C@H](CC(C)C)C(=O)N[C@H]1C(=O)N[C@@H](CC(N)=O)C(=O)N[C@H]2C(=O)N[C@H]3C(=O)N[C@H](C(=O)N[C@H](C(=O)O)c4cc(O)cc(O)c4-c4cc3ccc4O)[C@H](O)c3ccc(c(Cl)c3)Oc3cc2cc(c3O[C@@H]2O[C@H](CO)[C@@H](O)[C@H](O)[C@H]2O[C@H]2C[C@](C)(N)[C@H](O)[C@H](C)O2)Oc2ccc(cc2Cl)[C@H]1O [VANCOMYCIN] |  |  | zone of inhibition at 30 µg/mL (Staphylococcus aureus [13]): 17 mm; zone of inhibition at 30 µg/mL (Staphylococcus aureus [14]): 16 mm; MIC (Staphylococcus aureus [6]): 8 µg/mL (≈ 5.52 µM) |
| COc1cccc(/C=C/C(=O)c2ccccc2)c1OC | inactive | inactive |  |
| O=C(/C=C/c1ccccc1)c1ccccc1 | inactive | inactive |  |
| COc1ccccc1/C=C/C(=O)c1ccccc1O | inactive | inactive |  |
| COc1ccc(/C=C/C(=O)c2ccccc2)cc1 | inactive | inactive |  |

From ChEMBL document CHEMBL2046424, “Synthesis and anti Methicillin resistant Staphylococcus aureus activity of substituted chalcones alone and in combination with non-beta-lactam antibiotics” (2012)
